Species on record: Rattus norvegicus
Experiment: Open TG-GATES - Regimen: Daily Repeat
Format: toxicity, organism-based, Sprague-Dawley
Parameters: regimen Daily Repeat, gender Male, age 6 weeks
Conditions: in vivo, po, 300 mg/kg, route gavage, dose level Middle; for APTT / Bas / Eos / Fbg / Hb / Ht / Lym / MCH / MCHC / MCV / Mono / Neu / PT / Plat / RBC / Ret / WBC: tissue Blood; for KIDNEY_L / KIDNEY_R / KIDNEY_TOTAL: tissue Kidney; for LIVER: tissue Liver; for A/G / ALP / ALT / AST / BUN / CRE / Ca / Cl / DBIL / GLC / IP / K / LDH / Na / PL / RALB / TBIL / TC / TG / TP / gamma-GTP: tissue Plasma

For `CN(C)[C@@H]1C(O)=C(C(N)=O)C(=O)[C@@]2(O)C(O)=C3C(=O)c4c(O)cccc4[C@@](C)(O)[C@H]3C[C@@H]12` [TETRACYCLINE], the TERMINAL_BW (72 h, time 3 day) was 189.9 g, the APTT (72 h, time 3 day) was 16.3 s and the Bas (72 h, time 3 day) was 0%. It also gave an Eos (72 h, time 3 day) of 0.6%, a Fbg (72 h, time 3 day) of 239.2 mg/dL and a Hb (72 h, time 3 day) of 13.6 g/dL. The Ht (72 h, time 3 day) was 40.7%, the Lym (72 h, time 3 day) was 87.4% and the MCH (72 h, time 3 day) was 21.9 pg. For the same compound, the MCHC (72 h, time 3 day) was 33.4%, the MCV (72 h, time 3 day) was 65.7 fL and the Mono (72 h, time 3 day) was 5.6%. For the same compound, the Neu (72 h, time 3 day) was 6%, the PT (72 h, time 3 day) was 12.3 s and the Plat (72 h, time 3 day) was 99.5 x10_4/uL. The RBC (72 h, time 3 day) was 620.2 x10_4/ul, the Ret (72 h, time 3 day) was 5.8% and the WBC (72 h, time 3 day) was 89.4 x10_2/uL. The KIDNEY_L (72 h, time 3 day) was 0.9 g, the KIDNEY_R (72 h, time 3 day) was 0.9 g and the KIDNEY_TOTAL (72 h, time 3 day) was 1.8 g. For the same compound, the LIVER (72 h, time 3 day) was 8.8 g, the A/G (72 h, time 3 day) was 1.9 and the ALP (72 h, time 3 day) was 1035.4 IU/L. For the same compound, the ALT (72 h, time 3 day) was 35.6 IU/L, the AST (72 h, time 3 day) was 66.8 IU/L and the BUN (72 h, time 3 day) was 16.2 mg/dL. The CRE (72 h, time 3 day) was 0.6 mg/dL, the Ca (72 h, time 3 day) was 10.9 mg/dL and the Cl (72 h, time 3 day) was 107.2 meq/L. The DBIL (72 h, time 3 day) was 0.01 mg/dL, the GLC (72 h, time 3 day) was 180.6 mg/dL and the IP (72 h, time 3 day) was 9.8 mg/dL. For the same compound, the K (72 h, time 3 day) was 4.8 meq/L, the LDH (72 h, time 3 day) was 122.6 IU/L and the Na (72 h, time 3 day) was 141 meq/L. The PL (72 h, time 3 day) was 147.2 mg/dL, the RALB (72 h, time 3 day) was 3.8 g/dL and the TBIL (72 h, time 3 day) was 0.3 mg/dL. For the same compound, the TC (72 h, time 3 day) was 93.6 mg/dL, the TG (72 h, time 3 day) was 42.6 mg/dL and the TP (72 h, time 3 day) was 5.8 g/dL. It also gave a gamma-GTP (72 h, time 3 day) of 1.6 IU/L, a TERMINAL_BW ([…], time 7 day) of 227.9 g and a TERMINAL_BW ([…], time 14 day) of 275.6 g. The TERMINAL_BW ([…], time 28 day) was 341 g, the APTT ([…], time 7 day) was 17.9 s and the Bas ([…], time 7 day) was 0%. For the same compound, the Eos ([…], time 7 day) was 1%, the Fbg ([…], time 7 day) was 238.5 mg/dL and the Hb ([…], time 7 day) was 13.9 g/dL. The Ht ([…], time 7 day) was 41.5%, the Lym ([…], time 7 day) was 85% and the MCH ([…], time 7 day) was 21 pg. The MCHC ([…], time 7 day) was 33.4%, the MCV ([…], time 7 day) was 62.9 fL and the Mono ([…], time 7 day) was 7%. For the same compound, the Neu ([…], time 7 day) was 7.2%, the PT ([…], time 7 day) was 12.1 s and the Plat ([…], time 7 day) was 102 x10_4/uL. It also gave an RBC ([…], time 7 day) of 660.2 x10_4/ul, a Ret ([…], time 7 day) of 7.2% and a WBC ([…], time 7 day) of 135.8 x10_2/uL. For the same compound, the APTT ([…], time 14 day) was 16.7 s, the Bas ([…], time 14 day) was 0% and the Eos ([…], time 14 day) was 0.6%. For the same compound, the Fbg ([…], time 14 day) was 224 mg/dL, the Hb ([…], time 14 day) was 14 g/dL and the Ht ([…], time 14 day) was 42.2%. The Lym ([…], time 14 day) was 88.8%, the MCH ([…], time 14 day) was 20.3 pg and the MCHC ([…], time 14 day) was 33.3%. It also gave an MCV ([…], time 14 day) of 60.8 fL, a Mono ([…], time 14 day) of 4.8% and a Neu ([…], time 14 day) of 5.8%. For the same compound, the PT ([…], time 14 day) was 11.9 s, the Plat ([…], time 14 day) was 101.9 x10_4/uL and the RBC ([…], time 14 day) was 694 x10_4/ul. The Ret ([…], time 14 day) was 5.3%, the WBC ([…], time 14 day) was 135.4 x10_2/uL and the APTT ([…], time 28 day) was 16.5 s. For the same compound, the Bas ([…], time 28 day) was 0%, the Eos ([…], time 28 day) was 1% and the Fbg ([…], time 28 day) was 222.6 mg/dL. The Hb ([…], time 28 day) was 14.6 g/dL, the Ht ([…], time 28 day) was 43.4% and the Lym ([…], time 28 day) was 89.4%. It also gave an MCH ([…], time 28 day) of 19 pg, an MCHC ([…], time 28 day) of 33.6% and an MCV ([…], time 28 day) of 56.6 fL. The Mono ([…], time 28 day) was 3%, the Neu ([…], time 28 day) was 7% and the PT ([…], time 28 day) was 11.8 s. For the same compound, the Plat ([…], time 28 day) was 94.9 x10_4/uL, the RBC ([…], time 28 day) was 766.8 x10_4/ul and the Ret ([…], time 28 day) was 2.7%. It also gave a WBC ([…], time 28 day) of 147 x10_2/uL, a KIDNEY_L ([…], time 7 day) of 1 g and a KIDNEY_R ([…], time 7 day) of 1 g. For the same compound, the KIDNEY_TOTAL ([…], time 7 day) was 2 g, the KIDNEY_L ([…], time 14 day) was 1.1 g and the KIDNEY_R ([…], time 14 day) was 1.1 g. For the same compound, the KIDNEY_TOTAL ([…], time 14 day) was 2.2 g, the KIDNEY_L ([…], time 28 day) was 1.3 g and the KIDNEY_R ([…], time 28 day) was 1.2 g. For the same compound, the KIDNEY_TOTAL ([…], time 28 day) was 2.5 g, the LIVER ([…], time 7 day) was 10.8 g and the LIVER ([…], time 14 day) was 11.8 g. It also gave an LIVER ([…], time 28 day) of 13.2 g, an A/G ([…], time 7 day) of 2 and an ALP ([…], time 7 day) of 1076.4 IU/L. For the same compound, the ALT ([…], time 7 day) was 38.2 IU/L, the AST ([…], time 7 day) was 69 IU/L and the BUN ([…], time 7 day) was 20.2 mg/dL. It also gave a CRE ([…], time 7 day) of 0.6 mg/dL, a Ca ([…], time 7 day) of 11.2 mg/dL and a Cl ([…], time 7 day) of 106.6 meq/L. For the same compound, the DBIL ([…], time 7 day) was 0.004 mg/dL, the GLC ([…], time 7 day) was 176 mg/dL and the IP ([…], time 7 day) was 9.6 mg/dL. The K ([…], time 7 day) was 5.5 meq/L, the LDH ([…], time 7 day) was 142 IU/L and the Na ([…], time 7 day) was 140.4 meq/L. For the same compound, the PL ([…], time 7 day) was 157.6 mg/dL, the RALB ([…], time 7 day) was 3.9 g/dL and the TBIL ([…], time 7 day) was 0.3 mg/dL. For the same compound, the TC ([…], time 7 day) was 82.6 mg/dL, the TG ([…], time 7 day) was 87.6 mg/dL and the TP ([…], time 7 day) was 5.9 g/dL. It also gave a gamma-GTP ([…], time 7 day) of 1 IU/L, an A/G ([…], time 14 day) of 2 and an ALP ([…], time 14 day) of 1009.2 IU/L. For the same compound, the ALT ([…], time 14 day) was 36.8 IU/L, the AST ([…], time 14 day) was 61.6 IU/L and the BUN ([…], time 14 day) was 20.8 mg/dL. The CRE ([…], time 14 day) was 0.5 mg/dL, the Ca ([…], time 14 day) was 11.1 mg/dL and the Cl ([…], time 14 day) was 103.8 meq/L. For the same compound, the DBIL ([…], time 14 day) was 0.006 mg/dL, the GLC ([…], time 14 day) was 178.2 mg/dL and the IP ([…], time 14 day) was 8.6 mg/dL. For the same compound, the K ([…], time 14 day) was 4.8 meq/L, the LDH ([…], time 14 day) was 88.6 IU/L and the Na ([…], time 14 day) was 142.4 meq/L. For the same compound, the PL ([…], time 14 day) was 157 mg/dL, the RALB ([…], time 14 day) was 3.9 g/dL and the TBIL ([…], time 14 day) was 0.3 mg/dL. The TC ([…], time 14 day) was 72.4 mg/dL, the TG ([…], time 14 day) was 111.4 mg/dL and the TP ([…], time 14 day) was 6 g/dL. The gamma-GTP ([…], time 14 day) was 1.2 IU/L, the A/G ([…], time 28 day) was 1.8 and the ALP ([…], time 28 day) was 813.4 IU/L. For the same compound, the ALT ([…], time 28 day) was 29 IU/L, the AST ([…], time 28 day) was 62.4 IU/L and the BUN ([…], time 28 day) was 19.4 mg/dL. For the same compound, the CRE ([…], time 28 day) was 0.6 mg/dL, the Ca ([…], time 28 day) was 10.9 mg/dL and the Cl ([…], time 28 day) was 107 meq/L. For the same compound, the DBIL ([…], time 28 day) was 0.026 mg/dL, the GLC ([…], time 28 day) was 173.2 mg/dL and the IP ([…], time 28 day) was 7.4 mg/dL. For the same compound, the K ([…], time 28 day) was 4.2 meq/L, the LDH ([…], time 28 day) was 73.8 IU/L and the Na ([…], time 28 day) was 141 meq/L. The PL ([…], time 28 day) was 146 mg/dL, the RALB ([…], time 28 day) was 3.8 g/dL and the TBIL ([…], time 28 day) was 0.3 mg/dL. It also gave a TC ([…], time 28 day) of 75.2 mg/dL, a TG ([…], time 28 day) of 127 mg/dL and a TP ([…], time 28 day) of 6 g/dL. For the same compound, the gamma-GTP ([…], time 28 day) was 1 IU/L.
